Results published in US4298727A, “3',4'-Dideoxykanamycin A and 1-N-(S)-α-hydroxy-ω-aminoalkanoyl) derivatives thereof” (Zaidan Hojin Biseibutsu Kagaku KenkyuKai, priority 1979, dated 1981).
Values after ≈ are worked out from the molar mass of the structure shown. Like-named read-outs stand apart in the source and are kept apart here.

Columns and labels:
[1] = test system: Staphylococcus aureus 209P; test: MIC, standard serial dilution on nutrient agar; type: cell-based
Protocol: (§1) The minimum inhibitory concentrations (mcg/ml) of the new compounds of this invention against various microorganisms were determined according to a standard serial dilution method using nutrient agar incubation medium at 37° C., the estimation being made after 18 hours incubation.

[2] = test system: Staphylococcus aureus APOI; test: MIC, standard serial dilution on nutrient agar; type: cell-based; settings: Staphylococcus aureus, 18 h
Protocol: as §1

[3] = test system: Staphylococcus aureus MS 9610; test: MIC, standard serial dilution on nutrient agar; type: cell-based
[4] = test system: Staphylococcus aureus MS 9883; test: MIC, standard serial dilution on nutrient agar; type: cell-based
[5] = test system: Staphylococcus epidermides 109; test: MIC, standard serial dilution on nutrient agar; type: cell-based
Protocol: as §1

Sarcina lutea PCI 1001 = test: MIC, standard serial dilution on nutrient agar; type: cell-based; settings: Micrococcus luteus, PCI1001, 18 h
Protocol: as §1

[6] = test system: Klebsiella pneumoniae 22 #3038; test: MIC, standard serial dilution on nutrient agar; type: cell-based
Escherichia coli K-12 = test: MIC, standard serial dilution on nutrient agar; type: cell-based; settings: K12, 37° C., 18 hours
[7] = test system: Escherichia coli K-12 ML 1629; test: MIC, standard serial dilution on nutrient agar; type: cell-based; settings: K12ML1629, 37° C., 18 hours
[8] = test system: Pseudomonas aeruginosa A3; test: MIC, standard serial dilution on nutrient agar; type: cell-based
Protocol: as §1

Klebsiella THO = test: MIC, standard serial dilution on nutrient agar; type: cell-based
Protocol: as §1

Klebsiella HOU = test: MIC, standard serial dilution on nutrient agar; type: cell-based
Protocol: as §1

Klebsiella BRIA = test: MIC, standard serial dilution on nutrient agar; type: cell-based
Protocol: as §1

Serratia CAT = test: MIC, standard serial dilution on nutrient agar; type: cell-based
Protocol: as §1

Serratia BOT = test: MIC, standard serial dilution on nutrient agar; type: cell-based
Protocol: as §1

Serratia 7 = test: MIC, standard serial dilution on nutrient agar; type: cell-based; settings: Serratia, 7, 18 h
Protocol: as §1

Providencia 19 = test: MIC, standard serial dilution on nutrient agar; type: cell-based; settings: Providencia, 19, 18 h
Protocol: as §1

Providencia ZAO = test: MIC, standard serial dilution on nutrient agar; type: cell-based
Protocol: as §1

Providencia Pv 37 = test: MIC, standard serial dilution on nutrient agar; type: cell-based; settings: PV37, 37° C., 18 hours
Protocol: as §1

Proteus vulgaris BAC = test: MIC, standard serial dilution on nutrient agar; type: cell-based
Protocol: as §1

Proteus rettgeri AUB = test: MIC, standard serial dilution on nutrient agar; type: cell-based; settings: Providencia rettgeri
Protocol: as §1

Enterobacter 666 = test: MIC, standard serial dilution on nutrient agar; type: cell-based; settings: 37° C., 18 hours
Protocol: as §1

Enterobacter HAU = test: MIC, standard serial dilution on nutrient agar; type: cell-based; settings: Enterobacter, 18 h
Protocol: as §1

Erwinia 7-22 = test: MIC, standard serial dilution on nutrient agar; type: cell-based; settings: 722, 37° C., 18 hours
Protocol: as §1

Pyocyanique = test: MIC, standard serial dilution on nutrient agar; type: cell-based; settings: 18 h
Protocol: as §1

resistant bacteria = settings: in words, background art; cited from earlier work
[9] = Staphylococcus aureus, 209P, 18 h
[10] = Staphylococcus aureus, MS9610, 18 h
[11] = MS9883, Staphylococcus aureus MS 9883, nutrient agar, 37° C., 18 hours, read-out: MIC.
[12] = Pseudomonas aeruginosa, A3, 18 h
[13] = Klebsiella BRIA, nutrient agar, 37° C., 18 hours, read-out: MIC.

NCC[C@H](O)C(=O)N[C@@H]1C[C@H](N)[C@@H](O[C@H]2O[C@H](CN)[C@@H](O)[C@H](O)[C@H]2O)[C@H](O)[C@H]1O[C@H]1O[C@H](CO)[C@@H](O)[C@H](N)[C@H]1O [Amikacin, 1-N-((S)-2-hydroxy-4-aminobutyryl)-kanamycin A]
MIC [1, 9]: 3.12 µg/mL (≈ 5.33 µM)
MIC [2]: 1.56 µg/mL (≈ 2.66 µM)
MIC [3, 10]: 3.12 µg/mL (≈ 5.33 µM)
MIC [4, 11]: 6.25 µg/mL (≈ 10.7 µM)
MIC ([5]; Staphylococcus, 109, 18 h): 3.12 µg/mL (≈ 5.33 µM)
MIC (Sarcina lutea PCI 1001): 3.12 µg/mL (≈ 5.33 µM)
MIC ([6]; Klebsiella pneumoniae, 18 h): 3.12 µg/mL (≈ 5.33 µM)
MIC (Escherichia coli K-12): 1.56 µg/mL (≈ 2.66 µM)
MIC [7]: 1.56 µg/mL (≈ 2.66 µM)
MIC [8, 12]: 1.56 µg/mL (≈ 2.66 µM)
MIC (Klebsiella THO; Klebsiella THO, nutrient agar, 37° C., 18 hours, read-out: MIC.): 6.25 µg/mL (≈ 10.7 µM)
MIC (Klebsiella HOU; Klebsiella, 18 h): 12.5 µg/mL (≈ 21.3 µM)
MIC (Klebsiella BRIA; [13]): 6.25 µg/mL (≈ 10.7 µM)
MIC (Serratia CAT; Serratia, 18 h): 12.5 µg/mL (≈ 21.3 µM)
MIC (Serratia BOT; Serratia, 18 h): 12.5 µg/mL (≈ 21.3 µM)
MIC (Serratia 7): 12.5 µg/mL (≈ 21.3 µM)
MIC (Providencia 19): 12.5 µg/mL (≈ 21.3 µM)
MIC (Providencia ZAO; Providencia, 18 h): 12.5 µg/mL (≈ 21.3 µM)
MIC (Providencia Pv 37): 12.5 µg/mL (≈ 21.3 µM)
MIC (Proteus vulgaris BAC; Proteus vulgaris, 18 h): 3.12 µg/mL (≈ 5.33 µM)
MIC (Proteus rettgeri AUB; Proteus rettgeri AUB, nutrient agar, 37° C., 18 hours, read-out: MIC.): 6.25 µg/mL (≈ 10.7 µM)
MIC (Enterobacter 666): 1.56 µg/mL (≈ 2.66 µM)
MIC (Enterobacter HAU): 50 µg/mL (≈ 85.4 µM)
MIC (Erwinia 7-22): 1.56 µg/mL (≈ 2.66 µM)
MIC (Pyocyanique): 50 µg/mL (≈ 85.4 µM)
activity against resistant bacteria (resistant bacteria): cannot be inactivated by the kanamycin-resistant bacteria

NCC1OC(OC2C(N)CC(N)C(OC3OC(CO)C(O)C(N)C3O)C2O)C(O)C(O)C1O (centres unmarked) [Kanamycin A]
MIC [1, 9]: 3.12 µg/mL (≈ 6.44 µM)
MIC [2]: 12.5 µg/mL (≈ 25.8 µM)
MIC [3, 10]: 6.25 µg/mL (≈ 12.9 µM)
MIC ([4]; Staphylococcus aureus, MS9883, 18 h): 6.25 µg/mL (≈ 12.9 µM)
MIC ([5]; Staphylococcus, 109, 18 h): 25 µg/mL (≈ 51.6 µM)
MIC (Sarcina lutea PCI 1001): 12.5 µg/mL (≈ 25.8 µM)
MIC ([6]; Klebsiella pneumoniae, 18 h): > 100 µg/mL
MIC (Escherichia coli K-12): 3.12 µg/mL (≈ 6.44 µM)
MIC [7]: > 100 µg/mL
MIC [8, 12]: 25 µg/mL (≈ 51.6 µM)
MIC (Klebsiella THO; Klebsiella, 18 h): > 100 µg/mL
MIC (Klebsiella HOU; Klebsiella, 18 h): > 100 µg/mL
MIC (Klebsiella BRIA; Klebsiella, 18 h): > 100 µg/mL
MIC (Serratia CAT; Serratia, 18 h): > 100 µg/mL
MIC (Serratia BOT; Serratia, 18 h): 6.25 µg/mL (≈ 12.9 µM)
MIC (Serratia 7): > 100 µg/mL
MIC (Providencia 19): > 100 µg/mL
MIC (Providencia ZAO; Providencia, 18 h): > 100 µg/mL
MIC (Providencia Pv 37): > 100 µg/mL
MIC (Proteus vulgaris BAC; Proteus vulgaris, 18 h): > 100 µg/mL
MIC (Proteus rettgeri AUB; 18 h): > 100 µg/mL
MIC (Enterobacter 666): > 100 µg/mL
MIC (Enterobacter HAU): > 100 µg/mL
MIC (Erwinia 7-22): > 100 µg/mL
MIC (Pyocyanique): 50 µg/mL (≈ 103 µM)

NCC1CCC(O)C(OC2C(N)CC(NC(=O)C(O)CN)C(OC3OC(CO)C(O)C(N)C3O)C2O)O1 (racemic) [Compound No. 3, 1-N-(DL-2-hydroxy-3-aminopropionyl)-3',4'-dideoxykanamycin A]
MIC ([1]; Staphylococcus aureus 209P, nutrient agar, 37° C., 18 hours, read-out: MIC.): 3.12 µg/mL (≈ 5.78 µM)
MIC [2]: 1.56 µg/mL (≈ 2.89 µM)
MIC ([3]; MS9610, Staphylococcus aureus MS 9610, nutrient agar, 37° C., 18 hours, read-out: MIC.): 3.12 µg/mL (≈ 5.78 µM)
MIC [4, 11]: 3.12 µg/mL (≈ 5.78 µM)
MIC ([5]; Staphylococcus epidermides 109, nutrient agar, 37° C., 18 hours, read-out: MIC.): 3.12 µg/mL (≈ 5.78 µM)
MIC (Sarcina lutea PCI 1001): 6.25 µg/mL (≈ 11.6 µM)
MIC ([6]; Klebsiella pneumoniae 22 #3038, nutrient agar, 37° C., 18 hours, read-out: MIC.): 3.12 µg/mL (≈ 5.78 µM)
MIC (Escherichia coli K-12): 1.56 µg/mL (≈ 2.89 µM)
MIC [7]: 1.56 µg/mL (≈ 2.89 µM)
MIC ([8]; Pseudomonas aeruginosa A3, nutrient agar, 37° C., 18 hours, read-out: MIC.): 3.12 µg/mL (≈ 5.78 µM)
MIC (Klebsiella THO; Klebsiella, 18 h): 1.56 µg/mL (≈ 2.89 µM)
MIC (Klebsiella HOU; Klebsiella HOU, nutrient agar, 37° C., 18 hours, read-out: MIC.): 3.12 µg/mL (≈ 5.78 µM)
MIC (Klebsiella BRIA; [13]): 3.12 µg/mL (≈ 5.78 µM)
MIC (Serratia CAT; Serratia CAT, nutrient agar, 37° C., 18 hours, read-out: MIC.): 12.5 µg/mL (≈ 23.2 µM)
MIC (Serratia BOT; Serratia BOT, nutrient agar, 37° C., 18 hours, read-out: MIC.): 12.5 µg/mL (≈ 23.2 µM)
MIC (Serratia 7): 6.25 µg/mL (≈ 11.6 µM)
MIC (Providencia 19): 6.25 µg/mL (≈ 11.6 µM)
MIC (Providencia ZAO; Providencia ZAO, nutrient agar, 37° C., 18 hours, read-out: MIC.): 12.5 µg/mL (≈ 23.2 µM)
MIC (Providencia Pv 37): 6.25 µg/mL (≈ 11.6 µM)
MIC (Proteus vulgaris BAC; Proteus vulgaris BAC, nutrient agar, 37° C., 18 hours, read-out: MIC.): 3.12 µg/mL (≈ 5.78 µM)
MIC (Proteus rettgeri AUB; 18 h): 6.25 µg/mL (≈ 11.6 µM)
MIC (Enterobacter 666): 1.56 µg/mL (≈ 2.89 µM)
MIC (Enterobacter HAU): 25 µg/mL (≈ 46.3 µM)
MIC (Erwinia 7-22): 1.56 µg/mL (≈ 2.89 µM)
MIC (Pyocyanique): 50 µg/mL (≈ 92.7 µM)

1-N-((S)-2-hydroxy-4-aminobutyryl)-5-O-β-D-xylofuranosyl- or ribofuranosyl-neamine [butirosins]
activity against resistant bacteria (resistant bacteria): active against some kanamycin- and ribostamycin-resistant bacteria
